In assay [1] the target is T1, Gal-8N (Homo sapiens, UniProt O00214).
T1 construct: consisting of residues 4-158 was produced by Lund Protein Production Platform; made in house; host or cells: E. coli TUNER(DE3)
T1 sequence (O00214 4-158): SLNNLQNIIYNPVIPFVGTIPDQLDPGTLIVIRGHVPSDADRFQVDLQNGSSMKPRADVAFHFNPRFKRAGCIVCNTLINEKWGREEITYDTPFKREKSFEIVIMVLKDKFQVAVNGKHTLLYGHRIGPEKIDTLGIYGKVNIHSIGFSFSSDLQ
The assay is described as follows: isothermal titration calorimetry (ITC), binding to Gal-8N. The following applies: for ΔΔH compared to 1: difference vs compound 1. The method, then: Isothermal titration calorimetry (ITC) experiments were conducted using a Microcal PEAQ-ITC isothermal titration calorimeter (Malvern Instruments, Malvern Panalytical Ltd) at 25 °C. Lyophilized Gal-8N was first dissolved in PBS buffer (with a 4.3 mM β-mercaptoethanol) with a pH = 7.4 and Gal-8N was dialyzed with a 0.5–3 mL Slide-A-Lyzer™ 7k MWCO Dialysis Cassette in the same buffer. To remove residual lactose, Gal-8N was additionally purified using Superdex 75 Increase column equilibrated in PBS with 5% DMSO. Fractions containing Gal-8N were collected and concentrated with Amicon® Ultra-0.5 Centrifugal Filter Device with a 10k MWCO to a final concentration of about 40 µM. A280 was measured using the NanoDrop^TM One Microvolume UV-VIS spectrophotometer and the concentration of Gal-8N was calculated (ε = 11460 L mol^−1 cm^−1 was used). 16 mM stock solutions of 1, 11, and 29 were prepared in pure DMSO. The 16 mM stock solutions were diluted to 800 μM with pure PBS and then to the final concentration of 560 μM (the final content of DMSO was 5%). Titrations were performed with 19 injections of Gal-8N inhibitors 1, 11 (560 μM) and 29 (800 μM) with a following settings: reference power = 10.0 µcal s^−1, feedback = high, stir speed = 750, Initial delay = 100 s, first spacing = 200 s, the other spacings = 150 s.
Raw thermograms were exported and integrated with the NITPIC (version 2.0.7)[43] and then analyzed with SEDPHAT (version 15.2)[44],[45]. Parameter and error analysis were performed using the Monte-Carlo approach for nonlinear regression with 1000 iterations as implemented in SEDPHAT.

Assay [2] addresses T2, Gal-1 (Homo sapiens, UniProt P09382).
T2 construct: made in house
More on the design: method as in PMID 34225180. The following applies: cited from earlier work.

In assay [3] the target is T3, Gal-8N (galectin-8 N-terminal domain) (Homo sapiens, UniProt O00214).
T3 construct: made in house
T3 sequence (O00214 19-152 limits assumed): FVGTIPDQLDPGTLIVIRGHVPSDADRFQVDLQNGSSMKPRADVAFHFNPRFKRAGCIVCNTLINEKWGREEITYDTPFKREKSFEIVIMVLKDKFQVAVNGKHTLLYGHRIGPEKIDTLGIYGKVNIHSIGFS
The following applies: cited from earlier work.

Assay [4] concerns the target T4, Gal-3 (Homo sapiens, UniProt P17931).
T4 construct: made in house
As to conditions: cited from earlier work; for Gal-3 selectivity ratio Kd (Gal-3)/Kd (Gal-8N): selectivity for Gal-8N over Gal-3 (fold).

For assay [5], the target named is T5, Gal-8C (Homo sapiens, UniProt O00214).
T5 construct: than to the C-terminal domain (Gal-8C)
T5 sequence (O00214 187-317 limits assumed): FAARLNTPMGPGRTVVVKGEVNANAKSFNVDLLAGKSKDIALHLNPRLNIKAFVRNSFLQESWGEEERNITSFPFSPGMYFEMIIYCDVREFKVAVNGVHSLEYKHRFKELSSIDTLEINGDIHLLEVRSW
The arrangement: method as in PMID 34225180. As to conditions: cited from earlier work.

The target of assay [6] is T1, Gal-8N. The experiment in a line: ligand efficiency (LE) and ligand-lipophilicity efficiency (LLE) calculations. The following applies: for LLE: from Gal-8N Kd and clogP; for LE: from Gal-8N Kd and number of non-hydrogen atoms.
Assay [7] addresses T3, Gal-8N (galectin-8 N-terminal domain). The experiment in a line: competitive fluorescence polarisation assay, Gal-8N. Type of assay: binding. The following applies: competitive FP, mean ± SEM of n = 4 to 8, 20 °C; read-out: Kd Gal-8N. As to the method:
(§1) Human galectins-1, -3, and -8N were expressed and purified as described previously[8],[23],[24]. Competitive fluorescence polarization assays were performed with a PHERAstar FS plate reader with software PHERAstar Mars version 2.10 R3 (BMG, Offenburg, Germany) and Tecan Spark multimode microplate reader (Tecan Trading AG, Switzerland), where a fluorescence anisotropy of fluorescent-tagged probes was measured by excitation at 485 nm and emission at 520 nm. Experiments were performed at 20 °C with Gal-1 at 0.5 µM, Gal-3 at 0.2 µM, and Gal-8N at 0.4 µM. Fluorescent probes used for experiments were 3,3′-dideoxy-3-[4-(fluorescein-5-yl-carbonylaminomethyl)-1H-1,2,3-triazol-1-yl]-3′-(3,5-di-methoxybenzamido)-1,1′-sulfanediyl-di-β-D-galactopyranoside at 0.02 µM for Gal-1 and -3 and 2-(fluorescein-5-yl-carbonylamino)ethyl β-D-galactopyranosyl(1-4)-2-acetamido-2-deoxy-β-D-glucopyranosyl(1–3)-β-D-galactopyranosyl(1–4)-β-D-glucopyranoside at 0.1 µM for Gal-8N in each well. Compounds were first dissolved in pure DMSO at 20 mM concentration and later diluted in 5% DMSO in PBS solution to 5-7 different concentrations. Each concentration was tested in duplicate. The highest inhibitor concentrations tested were 1.5 mM. The average values of Kd and SEM (standard error mean) were calculated from 4 to 8 duplicate measurements, showing 10–90% inhibition.
On the technique in general: In fluorescence polarisation assays a small probe gives low polarisation when free and higher when bound to something large.

Assay [8] addresses T2, Gal-1. The assay is described as follows: competitive fluorescence polarisation assay, Gal-1. As to conditions: for Kd: competitive FP, mean ± SEM of n = 4 to 8, 20 °C; for Gal-1 selectivity ratio Kd (Gal-1)/Kd (Gal-8N): ratio of FP Kd values. Type of assay: binding. The method, then: as §1
Assay [9] has as its target T5, Gal-8C. The assay is described as follows: competitive fluorescence polarisation assay, Gal-8C. Type of assay: binding. As to conditions: for Kd: competitive FP, mean ± SEM of n = 4 to 8; for Gal-8C selectivity ratio Kd (Gal-8C)/Kd (Gal-8N): ratio of FP Kd values.
Assay [10] has as its target T4, Gal-3. The assay is described as follows: competitive fluorescence polarisation assay, Gal-3. The following applies: for Kd: competitive FP, mean ± SEM of n = 4 to 8, 20 °C, read-out: Kd Gal-3; for Gal-3 selectivity ratio Kd (Gal-3)/Kd (Gal-8N): ratio of FP Kd values. It counts as binding. As to the method:
as §1

Setting [11] is: 25 °C, PBS buffer, 1:1 binding model, n = 2.

Several values for one entry are separate records, joined by “and”; a condition that tells them apart may be missing. Equal values may be shown once. Read-outs that look alike come from different tables or passages of the source.

T2 sequence (P09382 whole entry): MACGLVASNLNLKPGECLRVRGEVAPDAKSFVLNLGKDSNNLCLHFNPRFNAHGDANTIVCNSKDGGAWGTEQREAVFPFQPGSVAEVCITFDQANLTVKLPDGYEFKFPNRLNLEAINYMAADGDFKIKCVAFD
T4 sequence (P17931 whole entry): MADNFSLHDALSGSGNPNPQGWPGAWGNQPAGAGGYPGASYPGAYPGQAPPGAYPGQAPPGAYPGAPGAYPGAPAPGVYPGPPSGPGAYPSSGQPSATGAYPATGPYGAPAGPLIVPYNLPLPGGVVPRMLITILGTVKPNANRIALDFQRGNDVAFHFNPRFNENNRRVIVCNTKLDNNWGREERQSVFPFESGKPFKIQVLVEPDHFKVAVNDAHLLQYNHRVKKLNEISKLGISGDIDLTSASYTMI

`Cn1c(CO[C@@H]2[C@@H](O)[C@@H](Sc3ccc(Cl)c(Cl)c3)O[C@H](CO)[C@@H]2O)nc2ccc(C(=O)O)cc21` [Compound 1, reference compound]: in [1] (setting [11]), the “-TΔS” value was 3.35 kcal/mol and 3.35 ± 3.11 kcal/mol; the Kd was 5 µM; the ΔG is -7.22 kcal/mol and -7.22 ± 0.14 kcal/mol; the ΔH is -10.5 kcal/mol and -10.5 ± 2.87 kcal/mol. In assay [1] (TRIS buffer), the “-TΔS” value came out at 4.54 kcal/mol, the Kd was 4.5 µM, the ΔG was -7.34 kcal/mol and the ΔH is -12 kcal/mol. For the same molecule, the “Gal-1 selectivity ratio Kd (Gal-1)/Kd (Gal-8N)” value (shortened to “Gal-1 selectivity ratio Kd”) in assay [2] is reported as 72. For the same molecule, the “fold more potent than D-galactose (Gal-8N)” value in assay [3] is ~ 5000 fold. In assay [4], the “Gal-3 selectivity ratio Kd (Gal-3)/Kd (Gal-8N)” value (shortened to “Gal-3 selectivity ratio Kd”) is recorded as 2.8. Also, the “Gal-8C selectivity ratio Kd (Gal-8C)/Kd (Gal-8N)” value (“Gal-8C selectivity ratio Kd” for short) in assay [5] is reported as 422.

`O=C(O)[C@H](CC1CCCCC1)O[C@@H]1[C@@H](O)[C@@H](Sc2ccc(Cl)c(Cl)c2)O[C@H](CO)[C@@H]1O` [Compound 2]: the Kd in assay [3] is 12 µM; in [4] (Fig. 1, earlier inhibitors, read-out: Kd: galectin-3) it was 82 µM. Further, in [4] (Gal-8N over Gal-3), the “selectivity over Gal-3” value is 6.8 fold.

For the molecule `Cn1c(CO[C@@H]2C=CO[C@H](CO)[C@@H]2O)nc2ccc(C(=O)O)cc21` [Compound 3], the “Gal-3 selectivity ratio Kd” value in [4] is given as 14.

As to `C#CCO[C@@H]1[C@@H](OCc2nc3ccc(C(=O)O)cc3n2C)[C@@H](O)[C@@H](CO)O[C@@H]1Sc1ccc(Cl)c(Cl)c1` [Compound 11], in assay [6], the LLE was 2.01 and the LE is reported as 0.226 (kcal/mol)/heavy atom. Moreover, in [1] (setting [11]), the “-TΔS” value is 6.69 ± 2.2 kcal/mol and 6.69 kcal/mol; the Kd stood at 1.3 µM; the ΔG was -8.01 ± 0.12 kcal/mol and -8.01 kcal/mol; the ΔH was -14.6 ± 1.9 kcal/mol and -14.6 kcal/mol. The “ΔΔH compared to 1” value in [1] is recorded as “–17 kJ mol^−1”. For the same molecule, the “ΔΔH compared to 29” value in assay [1] (difference vs compound 29) is reported as “–4 kJ mol^−1”. Moreover, the Kd in assay [7] was 0.8 ± 0.09 µM. The same molecule yielded a Kd in assay [8] of 10 ± 0.71 µM. Moreover, in assay [9], the Kd came to 390 ± 14 µM and the “Gal-8C selectivity ratio Kd” value was 488. In assay [10], the Kd is 1.4 ± 0.2 µM and the “Gal-3 selectivity ratio Kd” value is on record as 1.75.

In the case of `Cn1c(CO[C@H]2[C@@H](O)[C@@H](CO)O[C@H](Sc3ccc(Cl)c(Cl)c3)[C@@H]2OCC2CCC2)nc2ccc(C(=O)O)cc21` [Compound 25], in [6], the LLE is 0.593 and the LE is 0.204 (kcal/mol)/heavy atom. Moreover, the Kd in assay [7] was 1.6 ± 0.07 µM. Besides, in assay [8], the Kd came out at 16 ± 0.5 µM and the “Gal-1 selectivity ratio Kd” value is reported as 10. Further, in assay [9], the Kd came to 383 ± 21 µM and the “Gal-8C selectivity ratio Kd” value amounted to 239. In [10], the Kd turned out to be 9.4 ± 1.9 µM and the “Gal-3 selectivity ratio Kd” value was found to be 5.9.

For the molecule `Cn1c(CO[C@H]2[C@@H](O)[C@@H](CO)O[C@H](Sc3ccc(Cl)c(Cl)c3)[C@@H]2OCC(=O)O)nc2ccc(C(=O)O)cc21` [Compound 29], in assay [6], the LLE is on record as 2.84 and the LE was 0.227 (kcal/mol)/heavy atom. In [1] (setting [11]), the “-TΔS” value was 5.26 ± 0.72 kcal/mol and 5.26 kcal/mol; the Kd amounted to 0.6 µM; the ΔG is -8.44 ± 0.096 kcal/mol and -8.44 kcal/mol; the ΔH is -13.6 ± 0.72 kcal/mol and -13.6 kcal/mol. For the same molecule, the “ΔΔH compared to 1” value in [1] is recorded as “–13 kJ mol^−1”. Also, in assay [7], the Kd is 0.5 ± 0.03 µM. Further, in assay [8], the Kd came to 49 ± 3.6 µM and the “Gal-1 selectivity ratio Kd” value came to 98. For the same molecule, in assay [9], the Kd was determined as 449 ± 39 µM and the “Gal-8C selectivity ratio Kd” value worked out at 898. Also, in [10], the Kd came out at 3.3 ± 0.2 µM and the “Gal-3 selectivity ratio Kd” value was 6.6.

In the case of `CO[C@@H]1[C@@H](OCc2nc3ccc(C(=O)O)cc3n2C)[C@@H](O)[C@@H](CO)O[C@@H]1Sc1ccc(Cl)c(Cl)c1` [Compound 32], in [6], the LLE is 2.08 and the LE was 0.231 (kcal/mol)/heavy atom. For the same molecule, the Kd in assay [7] amounted to 1.3 ± 0.05 µM. Further, in assay [8], the Kd is 16 ± 0.8 µM and the “Gal-1 selectivity ratio Kd” value is on record as 12.3. Moreover, in assay [9], the Kd worked out at 358 ± 29 µM and the “Gal-8C selectivity ratio Kd” value worked out at 275. Further, in assay [10], the Kd amounted to 4.5 ± 0.7 µM and the “Gal-3 selectivity ratio Kd” value came out at 3.5.

For the molecule `O=C[C@H](O)[C@@H](O)[C@@H](O)[C@H](O)CO` [D-galactose], the Kd in assay [4] (read-out: affinity for Gal-3) is about 5000 µM.

Source of the values: publication PMC11850616, “Nanomolar inhibitor of the galectin-8 N-terminal domain binds via a non-canonical cation-π interaction” (Communications Chemistry, 2025).
